Test results as given in ChEMBL document CHEMBL1136961, “Substituted tetrahydrocarbazoles with potent activity against human papillomaviruses” (Bioorg Med Chem Lett, 2009).

What was measured:
[1] = test system: Human papillomavirus type 16; assay: Antiviral activity against HPV-16 infected in human W12-20850 cells after 4 days by non-radioactive hybrid capture technique; assay type: functional, organism-based, Human papillomavirus 16
[2] = (§1) Cytotoxicity against human HFF cells; assay type: cell-based; conditions: HFF cells
[3] = Selectivity index, ratio of cytotoxicity against human keratinocytes to antiviral activity against HPV-16; assay type: toxicity; conditions: read-out: Selectivity Index
[4] = Selectivity index, ratio of cytotoxicity against african green monkey Vero cells to antiviral activity against HPV-16; assay type: toxicity, cell-based; conditions: read-out: Selectivity Index
[5] = Half life in rat at 10 mg/kg administered as suspension; assay type: ADME, organism-based; set-up: dose 10 mg/kg; conditions: in vivo
[6] = Volume of distribution in rat at 10 mg/kg administered as suspension; assay type: ADME, organism-based; set-up: dose 10 mg/kg; conditions: in vivo
[7] = Bioavailability in rat at 10 mg/kg administered as suspension; assay type: ADME, organism-based; conditions: in vivo
[8] = Clearance in rat at 10 mg/kg administered as suspension; assay type: ADME, organism-based; set-up: dose 10 mg/kg; conditions: in vivo
HFF = assay: as §1; assay type: cell-based; conditions: hff
[9] = Human papillomavirus 16, W12-20850, 96 h

SMILES	IC50 [1, 9]	CC50 [2]	also measured
Cc1ccc2[nH]c3c(c2c1)CCC[C@@H]3N[C@@H](C)c1ccccc1	6.7 µM	36 µM	
Brc1ccc2[nH]c3c(c2c1)CCCC3NC1Cc2ccccc2C1 (racemic)	0.12 µM	30.8 µM	
C[C@H](N[C@@H]1CCCc2c1[nH]c1ccc(Br)cc21)c1ccccc1	0.02 µM	15 µM	
Brc1cccc2c3c([nH]c12)C(NCc1ccccc1)CCC3 (racemic)	11.4 µM	> 40 µM	
FC(F)(F)c1ccc2[nH]c3c(c2c1)CCCC3NCc1ccccc1 (racemic)	1 µM	> 100 µM	
Cc1ccc2[nH]c3c(c2c1)CCC[C@H]3N[C@@H](C)c1ccccc1	0.2 µM	29 µM	
CCNC1CCCc2c1[nH]c1ccc(C)cc21 (racemic)	> 20 µM	> 20 µM	
Cc1ccc2[nH]c3c(c2c1)CCC[C@@H]3N[C@H](C)c1ccccc1	7.1 µM	41 µM	
Cc1ccc2[nH]c3c(c2c1)CCCC3NCCc1ccccc1 (racemic)	2.7 µM	13.5 µM	
OCCNC1CCCc2c1[nH]c1ccc(Br)cc21 (racemic)	6.83 µM	20.1 µM	
Cc1ccc2[nH]c3c(c2c1)CCCC3NC1Cc2ccccc2C1 (racemic)	0.47 µM	40 µM	
C[C@@H](N[C@H]1CCCc2c1[nH]c1ccc(Br)cc21)c1ccccc1	> 0.5 µM	> 30 µM	
C[C@H](N[C@H]1CCCc2c1[nH]c1ccc(Br)cc21)c1ccccc1 (racemic)		22.9 µM	IC50 ([1]; w12-20850): 0.03 µM
c1ccc(CNC2CCCc3c2[nH]c2ccccc32)cc1 (racemic)	6.7 µM	40.4 µM	
Brc1ccc2c3c([nH]c2c1)C(NCc1ccccc1)CCC3 (racemic)	11.1 µM	> 40 µM	
C[C@@H](N[C@@H]1CCCc2c1[nH]c1ccc(Br)cc21)c1ccccc1	0.03 µM	9 µM	selectivity ratio [3]: > 300; selectivity ratio [4]: > 500; half-life [5]: 4.4 h; Vd [6]: 1.9 L/kg; bioavailability [7]: 47%; clearance [8]: 13.4 mL/min/kg
COC(=O)c1ccc2[nH]c3c(c2c1)CCCC3NCc1ccccc1 (racemic)	19.7 µM	44.5 µM	
Cc1ccc2[nH]c3c(c2c1)CCCC3NCCO (racemic)	> 30 µM	> 30 µM	
Cc1ccc2[nH]c3c(c2c1)CCCC3NC(C)c1ccccc1 (racemic)	0.54 µM	40 µM	
Brc1ccc2[nH]c3c(c2c1)CCCC3NCCc1ccccc1 (racemic)	0.41 µM	11.4 µM	
COc1ccc2[nH]c3c(c2c1)CCCC3NCc1ccccc1 (racemic)	7.6 µM	57.9 µM	
C[C@H](N[C@H]1CCCc2c1[nH]c1ccc(Br)cc21)c1ccccc1			IC50 ([1]; w12-20850): 2.85 µM; CC50 (HFF): 28.5 µM
Brc1ccc2[nH]c3c(c2c1)CCCC3NCc1ccccc1 (racemic)	0.15 µM	18.8 µM	
Fc1ccc2[nH]c3c(c2c1)CCCC3NCc1ccccc1 (racemic)	1.6 µM	35.9 µM	
Cc1ccc2[nH]c3c(c2c1)CCC[C@H]3N[C@H](C)c1ccccc1	0.3 µM	29 µM	
Clc1ccc2[nH]c3c(c2c1)CCCC3NCc1ccccc1 (racemic)	0.33 µM	27.9 µM	
CC(C)(NC1CCCc2c1[nH]c1ccc(Br)cc21)c1ccccc1 (racemic)	0.6 µM	> 40 µM	
Cc1ccc2[nH]c3c(c2c1)CCCC3NCc1ccccc1 (racemic)	1.9 µM	21.3 µM	
O=[N+]([O-])c1ccc2[nH]c3c(c2c1)CCCC3NCc1ccccc1 (racemic)	0.23 µM	20.4 µM	
CCN(CC)CCNC1CCCc2c1[nH]c1ccc(C)cc21 (racemic)	> 30 µM	> 30 µM	
